Tests used:
[1] = system: HEK293sieSTAT3(Y640F); assay: drug sensitivity score (DSS), viability CellTiter-Glo (DSS (dimensionless)); higher = more growth inhibition; extreme values may be limits of the assay; details: 72 h; STAT3 variant: Y640F (constitutively active)
How it was run: (§1)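 In 384-well plates with acoustically pre-plated compounds (5 concentrations, 10-fold dilutions), 20 μl of HEK293 cells at 100,000 cells/ml were added; the cells overexpressed wild-type or mutant STAT3 and carried a STAT3-dependent luciferase reporter. Incubation lasted 72 hours at 37°C and 5% CO2 before sequential CellTox Green (485/520 nm) and CellTiter-Glo reads on a PHERAstar FS. After normalisation to negative and positive control wells, Breeze was used to derive a drug sensitivity score from the dose-response curve area.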

[2] = system: HEK293sieSTAT3(wt); assay: as above; details: 72 h; STAT3 variant: wild type
How it was run: as §1

[3] = system: HEK293sieSTAT3(Y640F); assay: drug sensitivity score (DSS), cytotoxicity CellTox Green (DSS (dimensionless)); higher = more cytotoxic; extreme values may be limits of the assay; details: 72 h; STAT3 variant: Y640F (constitutively active)
How it was run: as §1

[4] = system: HEK293sieSTAT3(wt); assay: as above; details: 72 h; STAT3 variant: wild type
How it was run: as §1

| Compound | drug sensitivity score [1] | drug sensitivity score [2] | drug sensitivity score [3] | drug sensitivity score [4] |
| --- | --- | --- | --- | --- |
| CC1(COc2ccc3c(c2)ncn3-c2ccc3cccc(N4CCC(N)CC4)c3n2)COC1 [Crenolanib] (top concentration tested 10000 nM) | 9.27 | 11.9 | 8.74 | 11 |
| C[C@@H](Oc1cc(-c2cnn(C3CCNCC3)c2)cnc1N)c1c(Cl)ccc(F)c1Cl [Crizotinib] (top concentration tested 1000 nM) | 1.05 | 1.97 | 0.46 | 5.34 |
| O=P1(N(CCCl)CCCl)NCCCO1 (centres undefined) [Cyclophosphamide] (top concentration tested 40000 nM) | 0 | 0 | 0 | 0 |
| Nc1ccn([C@@H]2O[C@H](CO)[C@@H](O)[C@@H]2O)c(=O)n1 [Cytarabine] (top concentration tested 10000 nM) | 8.82 | 13.3 | 0.18 | 1.75 |
| CC(C)(C)c1nc(-c2cccc(NS(=O)(=O)c3c(F)cccc3F)c2F)c(-c2ccnc(N)n2)s1 [Dabrafenib] (top concentration tested 2500 nM) | 0 | 0 | 0 | 0 |
| CN(C)/N=N/c1[nH]cnc1C(N)=O [Dacarbazine] (top concentration tested 10000 nM) | 0.02 | 2.09 | 0 | 0 |
| COc1cc2ncnc(Nc3ccc(F)c(Cl)c3)c2cc1NC(=O)/C=C/CN1CCCCC1 [Dacomitinib] (top concentration tested 1000 nM) | 1.76 | 5.47 | 0 | 0 |
| Cc1c2oc3c(C)ccc(C(=O)N[C@@H]4C(=O)N[C@H](C(C)C)C(=O)N5CCC[C@H]5C(=O)N(C)CC(=O)N(C)[C@@H](C(C)C)C(=O)O[C@@H]4C)c3nc-2c(C(=O)N[C@@H]2C(=O)N[C@H](C(C)C)C(=O)N3CCC[C@H]3C(=O)N(C)CC(=O)N(C)[C@@H](C(C)C)C(=O)O[C@@H]2C)c(N)c1=O [Dactinomycin] (top concentration tested 1000 nM) | 32.5 | 35.4 | 0 | 0 |
| Cn1c(=O)n(-c2ccc(C(C)(C)C#N)cc2)c2c3cc(-c4cnc5ccccc5c4)ccc3ncc21 [Dactolisib] (top concentration tested 1000 nM) | 19.3 | 23 | 0 | 2.88 |
| CO[C@@H](C(=O)N1Cc2[nH]nc(NC(=O)c3ccc(N4CCN(C)CC4)cc3)c2C1)c1ccccc1 [Danusertib] (top concentration tested 10000 nM) | 6.46 | 7.14 | 0 | 11.8 |
| O=C(/C=C/c1cccnc1)NCCCCC1CCN(C(=O)c2ccccc2)CC1 [Daporinad] (top concentration tested 1000 nM) | 32.8 | 32.8 | 3.19 | 0 |
| CCN(CC)CCN(Cc1ccc(-c2ccc(C(F)(F)F)cc2)cc1)C(=O)Cn1c(SCc2ccc(F)cc2)nc(=O)c2c1CCC2 [Darapladib] (top concentration tested 1000 nM) | 1.89 | 1.03 | 1.32 | 0.65 |
| Cc1nc(Nc2ncc(C(=O)Nc3c(C)cccc3Cl)s2)cc(N2CCN(CCO)CC2)n1 [Dasatinib] (top concentration tested 1000 nM) | 6.45 | 2.74 | 0 | 1.81 |
| COc1cccc2c1C(=O)c1c(O)c3c(c(O)c1C2=O)C[C@@](O)(C(C)=O)C[C@@H]3O[C@H]1C[C@H](N)[C@H](O)[C@H](C)O1 [Daunorubicin] (top concentration tested 1000 nM) | 21.9 | 24 | 0 | 0 |
| Nc1ncn([C@H]2C[C@H](O)[C@@H](CO)O2)c(=O)n1 [Decitabine] (top concentration tested 10000 nM) | 7.35 | 10.4 | 0.02 | 3.31 |
| CC(=O)N(O)CCCCCNC(=O)CCC(=O)N(O)CCCCCNC(=O)CCC(=O)N(O)CCCCCN [Deferoxamine] (top concentration tested 10000 nM) | 2.48 | 3.23 | 0.01 | 1.09 |
| C[C@@H]1C[C@H]2[C@@H]3CCC4=CC(=O)C=C[C@]4(C)[C@@]3(F)[C@@H](O)C[C@]2(C)[C@@]1(O)C(=O)CO [Dexamethasone] (top concentration tested 10000 nM) | 3 | 2.01 | 0 | 0 |
| CCc1cnn2c(NCc3ccc[n+]([O-])c3)cc(N3CCCC[C@H]3CCO)nc12 [Dinaciclib] (top concentration tested 1000 nM) | 27.9 | 28.8 | 7.03 | 24.6 |
| CCN(CC)C(=S)SSC(=S)N(CC)CC [Disulfiram] (top concentration tested 100000 nM) | 31.1 | 30.2 | 30.9 | 30.4 |
| CC(=O)O[C@@]12CO[C@@H]1C[C@H](O)[C@@]1(C)C(=O)[C@H](O)C3=C(C)[C@@H](OC(=O)[C@H](O)[C@@H](NC(=O)OC(C)(C)C)c4ccccc4)C[C@@](O)([C@@H](OC(=O)c4ccccc4)[C@H]21)C3(C)C [Docetaxel] (top concentration tested 1000 nM) | 22.8 | 31 | 1.47 | 11.3 |
| Cc1ccc(-n2nc(C(C)(C)C)cc2NC(=O)Nc2ccc(OCCN3CCOCC3)c3ccccc23)cc1 [Doramapimod] (top concentration tested 10000 nM) | 5.05 | 3.87 | 0.14 | 0 |

| Compound | drug sensitivity score [1] | drug sensitivity score [2] | drug sensitivity score [3] | drug sensitivity score [4] |
| --- | --- | --- | --- | --- |
| CN1CCN(c2ccc3nc(-c4c(N)c5c(F)cccc5[nH]c4=O)[nH]c3c2)CC1 [Dovitinib] (top concentration tested 10000 nM) | 0.03 | 0 | 0 | 0 |
| COc1cccc2c1C(=O)c1c(O)c3c(c(O)c1C2=O)C[C@@](O)(C(=O)CO)C[C@@H]3O[C@H]1C[C@H](N)[C@H](O)[C@H](C)O1 [Doxorubicin] (top concentration tested 1000 nM) | 18.6 | 19.3 | 0 | 0 |
| C[C@H](Nc1ncnc2nc[nH]c12)c1cc2cccc(Cl)c2c(=O)n1-c1ccccc1 [Duvelisib] (top concentration tested 500 nM) | 3.95 | 2.36 | 0 | 0 |
| Cc1cc(Nc2cc(N3CCN(C)CC3)nc(/C=C/c3ccccc3)n2)n[nH]1 [ENMD-2076] (top concentration tested 10000 nM) | 9.67 | 10.7 | 0.61 | 5.35 |
| Cc1cc(C)c(CNC(=O)c2cc(-c3ccc(CN4CCOCC4)cc3)cc3c2cnn3C2CCCC2)c(=O)[nH]1 [EPZ-5687] (top concentration tested 10000 nM) | 0 | 0 | 0 | 0 |
| COC(=O)N[C@@H](C)CNc1nccc(-c2cn(C(C)C)nc2-c2cc(Cl)cc(NS(C)(=O)=O)c2F)n1 [Encorafenib] (top concentration tested 1000 nM) | 0.92 | 3.05 | 0 | 0 |
| Nc1ccccc1NC(=O)c1ccc(CNC(=O)OCc2cccnc2)cc1 [Entinostat] (top concentration tested 10000 nM) | 8.12 | 8.98 | 0.1 | 1.29 |
| c1cn2cc(-c3ccc4cn[nH]c4c3)nc(Nc3ccc(N4CCOCC4)cc3)c2n1 [Entospletinib] (top concentration tested 5000 nM) | 0 | 0 | 0 | 0 |
| CNC(=O)c1ccc(N2C(=S)N(c3ccc(C#N)c(C(F)(F)F)c3)C(=O)C2(C)C)cc1F [Enzalutamide] (top concentration tested 10000 nM) | 0.6 | 0 | 0 | 0 |
| Cn1cc(C2=C(c3cn(C4CCN(Cc5ccccn5)CC4)c4ccccc34)C(=O)NC2=O)c2ccccc21 [Enzastaurin] (top concentration tested 10000 nM) | 1.73 | 1.34 | 0 | 0 |
| NS(=O)(=O)NCCNc1nonc1/C(=N/O)Nc1ccc(F)c(Br)c1 [Epacadostat] (top concentration tested 10000 nM) | 1.76 | 0.37 | 0 | 0 |
| C#Cc1cccc(Nc2ncnc3cc(OCCOC)c(OCCOC)cc23)c1 [Erlotinib] (top concentration tested 10000 nM) | 3.21 | 2.99 | 0 | 0 |
| C[C@]12CC[C@@H]3c4ccc(OC(=O)N(CCCl)CCCl)cc4CC[C@H]3[C@@H]1CC[C@@H]2O [Estramustine] (top concentration tested 10000 nM) | 0.65 | 0 | 0 | 0.3 |
| COc1cc([C@@H]2c3cc4c(cc3[C@@H](O[C@@H]3O[C@@H]5CO[C@@H](C)O[C@H]5[C@H](O)[C@H]3O)[C@H]3COC(=O)[C@H]23)OCO4)cc(OC)c1O [Etoposide] (top concentration tested 10000 nM) | 17.6 | 20 | 3.46 | 7.94 |
| CO[C@H]1C[C@@H]2CC[C@@H](C)[C@@](O)(O2)C(=O)C(=O)N2CCCC[C@H]2C(=O)O[C@H]([C@H](C)C[C@@H]2CC[C@@H](OCCO)[C@H](OC)C2)CC(=O)[C@H](C)/C=C(\C)[C@@H](O)[C@@H](OC)C(=O)[C@H](C)C[C@H](C)/C=C/C=C/C=C/1C [Everolimus] (top concentration tested 100 nM) | 8.23 | 11.3 | 0 | 0 |
| C=C1C[C@@H]2[C@H](CC[C@]3(C)C(=O)CC[C@@H]23)[C@@]2(C)C=CC(=O)C=C12 [Exemestane] (top concentration tested 10000 nM) | 3.39 | 3.65 | 0 | 0 |
| Cc1nc(C(=O)NCC(=O)O)c(O)c2ccc(Oc3ccccc3)cc12 [FG-4592] (top concentration tested 10000 nM) | 1.3 | 2.23 | 0 | 0 |
| CCn1c(=O)c(-c2ccc(Cl)cc2Cl)cc2cnc(Nc3ccc(N4CCNCC4)c(F)c3)nc21 [FRAX486] (top concentration tested 5000 nM) | 6.38 | 9.57 | 0 | 6.75 |
| O=S(=O)(c1cccc2cnccc12)N1CCCNCC1 [Fasudil] (top concentration tested 50000 nM) | 4.74 | 3.23 | 2.11 | 4.45 |
| Cc1cnc(Nc2ccc(OCCN3CCCC3)cc2)nc1Nc1cccc(S(=O)(=O)NC(C)(C)C)c1 [Fedratinib] (top concentration tested 10000 nM) | 7.35 | 8.5 | 5.36 | 9.22 |

Source: the supplement of paper PMC7108870
